Among the data in BindingDB's records for patent US20240376113 (Volastra Therapeutics, 2024) are Ki values, retold here.

The experiment deals with T1, Ectonucleotide pyrophosphatase/phosphodiesterase family member 1 (Homo sapiens, UniProt P22413).
T1 sequence (P22413 whole entry): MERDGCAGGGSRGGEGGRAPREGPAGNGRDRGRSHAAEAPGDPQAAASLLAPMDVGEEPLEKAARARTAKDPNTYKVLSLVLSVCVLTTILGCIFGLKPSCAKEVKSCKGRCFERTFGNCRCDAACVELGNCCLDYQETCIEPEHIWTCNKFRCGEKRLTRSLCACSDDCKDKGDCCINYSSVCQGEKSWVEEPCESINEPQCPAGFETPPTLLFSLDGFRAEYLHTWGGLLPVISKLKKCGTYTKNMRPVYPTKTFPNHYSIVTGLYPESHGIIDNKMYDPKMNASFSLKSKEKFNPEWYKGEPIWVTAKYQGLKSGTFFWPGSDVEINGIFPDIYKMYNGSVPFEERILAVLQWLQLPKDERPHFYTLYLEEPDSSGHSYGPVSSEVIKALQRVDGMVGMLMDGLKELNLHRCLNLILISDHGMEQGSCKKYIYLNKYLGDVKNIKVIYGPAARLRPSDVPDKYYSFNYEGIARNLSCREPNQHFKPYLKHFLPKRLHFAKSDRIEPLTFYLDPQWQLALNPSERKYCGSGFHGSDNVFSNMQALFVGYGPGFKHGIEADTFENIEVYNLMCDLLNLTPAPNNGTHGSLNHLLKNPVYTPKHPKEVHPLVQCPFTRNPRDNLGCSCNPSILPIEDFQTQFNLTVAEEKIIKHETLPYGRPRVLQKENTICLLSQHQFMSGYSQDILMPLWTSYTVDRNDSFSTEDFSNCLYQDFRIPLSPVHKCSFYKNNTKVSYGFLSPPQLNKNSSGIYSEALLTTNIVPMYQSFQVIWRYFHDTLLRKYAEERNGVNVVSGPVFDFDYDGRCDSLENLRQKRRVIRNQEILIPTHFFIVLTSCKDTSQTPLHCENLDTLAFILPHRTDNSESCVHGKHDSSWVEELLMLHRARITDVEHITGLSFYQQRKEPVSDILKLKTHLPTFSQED
The experiment in a line: Inhibition of ENPP1 hydrolysis of 2′,3′-cGAMP (Assay 1). The protocol:
Test compounds were plated in a 3× dilution scheme in a 384 well plate.

The Ki is a dissociation constant, usually derived from enzyme kinetics or from competition with a known ligand. `Cc1c(Cc2ccc(S(C)(=N)=O)cc2)c(N(C)C)nc2ncnn12` (configuration not stated) [US20240376113, Compound 86] returned a Ki of 0.138 nM. This counts as sub-nanomolar. In the case of `Cc1c(Cc2ccc(S(C)(=N)=O)cc2)c(N)cc2ncnn12` (configuration not stated) [US20240376113, Compound 89] it was 28 nM.
